According to patent publication US20230086702A1, “SUBSTITUTED 2-AMINO-PYRAZOLYL-[1,2,4]TRIAZOLO[1,5A]PYRIDINE DERIVATIVES AND USE THEREOF” (The Johns Hopkins University, priority 2019, published 2023):
pIC50: −log10 of the molar value.

Tests used:
[1] = molecular target: T1, DLK (Homo sapiens, UniProt Q12852); assay: DLK biochemical assay (TR-FRET, MKK7 phosphorylation)
T1 construct: 10 nM DLK, catalytic domain, Carna Biosiences; purchased Carna Biosciences ('Carna Biosiences' [sic])
T1 sequence (Q12852 125-366 limits assumed): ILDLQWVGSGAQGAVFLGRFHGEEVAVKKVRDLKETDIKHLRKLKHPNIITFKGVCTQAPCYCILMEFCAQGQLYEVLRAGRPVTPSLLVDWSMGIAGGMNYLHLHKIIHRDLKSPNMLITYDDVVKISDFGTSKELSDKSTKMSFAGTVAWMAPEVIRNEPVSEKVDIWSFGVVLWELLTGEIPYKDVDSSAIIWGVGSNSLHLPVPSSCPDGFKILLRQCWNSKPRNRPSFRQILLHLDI
Summary of the method: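 TR-FRET read-out (665/Eu ratio) of MKK7 T275/S277 phosphorylation, with inhibition lowering the signal. Final conditions: 10 nM DLK catalytic domain, 15 nM MKK7, 60 μM ATP, 90 min at RT. Detection incubation 16 h at 37° C in 1536-well or 4° C in 384-well format.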

[2] = molecular target: T2, LZK (Homo sapiens, UniProt O43283); assay: LZK biochemical assay (TR-FRET, MKK7 phosphorylation)
T2 construct: 10 nM LZK, catalytic domain, Carna Biosiences in assay buffer; purchased Carna Biosciences ('Carna Biosiences' [sic])
T2 sequence (O43283 168-409 limits assumed): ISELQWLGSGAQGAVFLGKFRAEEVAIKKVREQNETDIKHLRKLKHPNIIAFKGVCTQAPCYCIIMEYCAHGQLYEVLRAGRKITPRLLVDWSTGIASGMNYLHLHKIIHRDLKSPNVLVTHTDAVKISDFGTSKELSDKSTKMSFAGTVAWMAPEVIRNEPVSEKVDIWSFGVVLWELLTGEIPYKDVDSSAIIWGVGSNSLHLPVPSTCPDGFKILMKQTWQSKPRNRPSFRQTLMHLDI
Summary of the method: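 Read-out is HTRF: Eu-labelled anti-phospho-MKK7 (T275/S277) and XL665 anti-His, incubated 16 h at 32 °C, with a drop in signal marking inhibition. Reaction beforehand: 10 nM LZK kinase domain, 15 nM His-MKK7, 15 µM ATP (final) for 90 min at room temperature, pH 7.5.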

Row | Structure (SMILES) | pIC50 [1] | pIC50 [2]
1 | Nc1nc2c(-c3ccc(=O)n(C(F)F)c3)cc(-c3cnn(C(c4ccc(C(F)(F)F)nc4)C4CCOCC4)c3)cn2n1 (single isomer, unassigned) [II-155, 5-[2-Amino-6-(1-{tetrahydro-2H-pyran-4-yl[6-(trifluoromethyl)pyridin-3-yl]methyl}-1H-pyrazol-4-yl)[1,2,4]triazolo[1,5-a]pyridin-8-yl]-1-(difluoromethyl)pyridin-2(1H)-one] | 9.00 | 8.51
2 | CCC(c1ccc(C(F)(F)F)cc1)n1cc(-c2cc(-c3cnn(C)c3)c3nc(N)nn3c2)cn1 (single isomer, unassigned) [II-101, 8-(1-Methyl-1H-pyrazol-4-yl)-6-(1-{1-[4-(trifluoromethyl)phenyl]propyl}-1H-pyrazol-4-yl)[1,2,4]triazolo[1,5-a]pyridin-2-amine] | 8.17 | 6.96
3 | Nc1nc2cc(-c3cnn(C(c4ccc(C(F)(F)F)nc4)C4CCOCC4)c3)cc(-c3cnn(CC(F)(F)F)c3)n2n1 (single isomer, unassigned) [II-150, 7-(1-{Tetrahydro-2H-pyran-4-yl[6-(trifluoromethyl)pyridin-3-yl]methyl}-1H-pyrazol-4-yl)-5-[1-(2,2,2-trifluoroethyl)-1H-pyrazol-4-yl][1,2,4]triazolo[1,5-a]pyridin-2-amine] | 8.85 | 8.31
4 | CC(C)C(c1ccc(C(F)(F)F)nc1)n1cc(-c2cc(-c3ccnc(C(F)(F)F)c3)n3nc(N)nc3c2)cn1 (single isomer, unassigned) [II-29, 7-(1-{2-Methyl-1-[6-(trifluoromethyl)pyridin-3-yl]propyl}-1H-pyrazol-4-yl)-5-[2-(trifluoromethyl)pyridin-4-yl][1,2,4]triazolo[1,5-a]pyridin-2-amine] | 6.92 | 7.01
5 | CC(C)C(c1ccc(C(F)F)nc1)n1cc(-c2cc(-c3ccc(OC(F)F)nc3)n3nc(N)nc3c2)cn1 (single isomer, unassigned) [II-50, 5-[6-(Difluoromethoxy)pyridin-3-yl]-7-(1-{1-[6-(difluoromethyl)pyridin-3-yl]-2-methylpropyl}-1H-pyrazol-4-yl)[1,2,4]triazolo[1,5-a]pyridin-2-amine] | 6.55 | 6.57
6 | CC(C)C(c1ccc(C(F)F)nc1)n1cc(-c2cc(-c3ccc(C4CC4)nc3)n3nc(N)nc3c2)cn1 (single isomer, unassigned) [II-54, 5-(6-Cyclopropylpyridin-3-yl)-7-(1-{1-[6-(difluoromethyl)pyridin-3-yl]-2-methylpropyl}-1H-pyrazol-4-yl)[1,2,4]triazolo[1,5-a]pyridin-2-amine] | 8.40 | 8.05
7 | Nc1nc2cc(-c3cnn(C(c4ccc(C(F)F)nc4)C4CCOCC4)c3)cc(-c3ccc(C(F)(F)F)nc3)n2n1 (single isomer, unassigned) [II-77, 7-(1-{[6-(Difluoromethyl)pyridin-3-yl](tetrahydro-2H-pyran-4-yl)methyl}-1H-pyrazol-4-yl)-5-[6-(trifluoromethyl)pyridin-3-yl][1,2,4]triazolo[1,5-a]pyridin-2-amine] | 6.80 | 7.21
8 | Nc1nc2cc(-c3cnn(Cc4ccccc4)c3)cc(-c3cnccn3)n2n1 [II-86, 7-(1-Benzyl-1H-pyrazol-4-yl)-5-(pyrazin-2-yl)[1,2,4]triazolo[1,5-a]pyridin-2-amine] | 7.27 | 6.05
9 | CC[C@@H](c1ccccc1)n1cc(-c2cc(-c3cnn(CC)c3)c3nc(N)nn3c2)cn1 [II-91, 8-(1-Ethyl-1H-pyrazol-4-yl)-6-{1-[(1S)-1-phenylpropyl]-1H-pyrazol-4-yl}[1,2,4]triazolo[1,5-a]pyridin-2-amine] | 8.28 | 6.94
10 | CCc1cnc(-c2cc(-c3cnn(Cc4ccccc4)c3)cc3nc(N)nn23)cn1 [II-87, 7-(1-Benzyl-1H-pyrazol-4-yl)-5-(5-ethylpyrazin-2-yl)[1,2,4]triazolo[1,5-a]pyridin-2-amine] | 7.38 | 6.28
11 | CC(C)C(c1ccc(C(F)(F)F)nc1)n1cc(-c2cc(-c3ccc(C4CC4)nc3)c3nc(N)nn3c2)cn1 (single isomer, unassigned) [II-45, 8-(6-Cyclopropylpyridin-3-yl)-6-(1-{2-methyl-1-[6-(trifluoromethyl)pyridin-3-yl]propyl}-1H-pyrazol-4-yl)[1,2,4]triazolo[1,5-a]pyridin-2-amine] | 8.02 | 8.00
12 | CC(C)C(c1ccc(C(F)(F)F)nc1)n1cc(-c2cc(-c3ccc(C4CC(F)(F)C4)nc3)n3nc(N)nc3c2)cn1 (racemic) [II-73, 5-[6-(3,3-Difluorocyclobutyl)pyridin-3-yl]-7-(1-{2-methyl-1-[6-(trifluoromethyl)pyridin-3-yl]propyl}-1H-pyrazol-4-yl)[1,2,4]triazolo[1,5-a]pyridin-2-amine] | 7.36 | 7.36
13 | CC(C)C(c1ccc(C(F)(F)F)nc1)n1cc(-c2cc(-c3cnc(OCC(F)(F)F)nc3)n3nc(N)nc3c2)cn1 (racemic) [II-85, 7-(1-{2-Methyl-1-[6-(trifluoromethyl)pyridin-3-yl]propyl}-1H-pyrazol-4-yl)-5-[2-(2,2,2-trifluoroethoxy)pyrimidin-5-yl][1,2,4]triazolo[1,5-a]pyridin-2-amine] | 6.64 | 6.49
14 | CC(C)C(c1ccc(C(F)F)nc1)n1cc(-c2cc(-c3ccc(C(F)(F)F)nc3)n3nc(N)nc3c2)cn1 (single isomer, unassigned) [II-65, 7-(1-{1-[6-(Difluoromethyl)pyridin-3-yl]-2-methylpropyl}-1H-pyrazol-4-yl)-5-[6-(trifluoromethyl)pyridin-3-yl][1,2,4]triazolo[1,5-a]pyridin-2-amine] | 6.36 | 6.68
15 | CCC(c1ccc(C(F)(F)F)nc1)n1cc(-c2cc(-c3ccnc(C4(F)CC4)c3)n3nc(N)nc3c2)cn1 (racemic) [II-31, 5-[2-(1-Fluorocyclopropyl)pyridin-4-yl]-7-(1-{1-[6-(trifluoromethyl)pyridin-3-yl]propyl}-1H-pyrazol-4-yl)[1,2,4]triazolo[1,5-a]pyridin-2-amine] | 7.59 | 8.21
16 | Nc1nc2cc(-c3cnn(C(c4ccccc4)C4CCNCC4)c3)cc(-c3cnn(CC(F)(F)F)c3)n2n1 (stereo not drawn) [II-152] | 8.85 | 7.80
17 | CC(C)C(c1ccc(C(F)(F)F)nc1)n1cc(-c2cc(-c3ccc(C(F)F)nc3)n3nc(N)nc3c2)cn1 (single isomer, unassigned) [II-71, 5-[6-(Difluoromethyl)pyridin-3-yl]-7-(1-{2-methyl-1-[6-(trifluoromethyl)pyridin-3-yl]propyl}-1H-pyrazol-4-yl)[1,2,4]triazolo[1,5-a]pyridin-2-amine] | 6.80 | 7.13
18 | Nc1nc2c(-c3cnn(CC(F)(F)F)c3)cc(-c3cnn(C(c4ccc(C(F)(F)F)nc4)C4CCOCC4)c3)cn2n1 (single isomer, unassigned) [II-119, 6-(1-{Tetrahydro-2H-pyran-4-yl[6-(trifluoromethyl)pyridin-3-yl]methyl}-1H-pyrazol-4-yl)-8-[1-(2,2,2-trifluoroethyl)-1H-pyrazol-4-yl][1,2,4]triazolo[1,5-a]pyridin-2-amine] | 8.33 | 7.80
19 | CC(C)C(c1ccc(C(F)(F)F)nc1)n1cc(-c2cc(-c3ccc(C(F)(F)F)nc3)c3nc(N)nn3c2)cn1 (single isomer, unassigned) [II-41, 6-(1-{2-Methyl-1-[6-(trifluoromethyl)pyridin-3-yl]propyl}-1H-pyrazol-4-yl)-8-[6-(trifluoromethyl)pyridin-3-yl][1,2,4]triazolo[1,5-a]pyridin-2-amine] | 6.42 | 6.11
20 | CC(C)C(c1ccc(C(F)(F)F)nc1)n1cc(-c2cc(-c3ccc(N4CCCC4)nc3)n3nc(N)nc3c2)cn1 (racemic) [II-79, 7-(1-{2-Methyl-1-[6-(trifluoromethyl)pyridin-3-yl]propyl}-1H-pyrazol-4-yl)-5-[6-(pyrrolidin-1-yl)pyridin-3-yl][1,2,4]triazolo[1,5-a]pyridin-2-amine] | 7.34 | 7.57
21 | CCC(c1ccc(C(F)(F)F)nc1)n1cc(-c2cc(-c3ccn(C)c(=O)c3)c3nc(N)nn3c2)cn1 (single isomer, unassigned) [II-170, 4-[2-Amino-6-(1-{1-[6-(trifluoromethyl)pyridin-3-yl]propyl}-1H-pyrazol-4-yl)[1,2,4]triazolo[1,5-a]pyridin-8-yl]-1-methylpyridin-2(1H)-one] | 7.14 | 6.66
